Laboratory results from ChEMBL document CHEMBL1152053, “Nonpeptide HIV protease inhibitors designed to replace a bound water” (Bioorg Med Chem Lett, 1993).

These compounds were tested against Human immunodeficiency virus type 1 protease (Human immunodeficiency virus 1, UniProt Q72874) (assay: Compound was evaluated for the inhibition of recombinant HIV-1 protease at 37 degrees C and pH of 6.).
`OC[C@]1(Cc2ccccc2)C[C@H](O)C[C@](CO)(Cc2ccccc2)[C@H]1O` showed a Ki of 48 µM.
Work on `OC[C@]1(Cc2ccccc2)C[C@H](O)C[C@](CO)(Cc2ccccc2)[C@@H]1O` yielded a Ki of 830 µM.
With `OC1[C@@](O)(Cc2ccccc2)CCC[C@]1(O)Cc1ccccc1` the Ki was over 2000 µM.
Compound `O=C1C[C@](O)(Cc2ccccc2)C(O)[C@@](O)(Cc2ccccc2)C1` has a Ki of 10 µM.
`O[C@H]1C[C@H](Cc2ccccc2)[C@H](O)[C@@H](Cc2ccccc2)C1` showed a Ki of over 2000 µM.
With `O=C1C[C@](CO)(Cc2ccccc2)C(O)[C@@](CO)(Cc2ccccc2)C1` the Ki was 62 µM.
In the case of `[O-][S+]1C[C@](CO)(Cc2ccccc2)C(O)[C@@](CO)(Cc2ccccc2)C1` (stereo in doubt; (+)7), the Ki is reported as 7 µM.
`[O-][S+]1C[C@](CO)(Cc2ccccc2)C(O)[C@@](CO)(Cc2ccccc2)C1` (stereo in doubt; (-)7) showed a Ki of 19 µM.
